From patent US20220125093A1, “NUTRITIONAL SUPPLEMENTS INCLUDING MEAL REPLACEMENTS AND RELATED METHODS” (Ohio State Innovation Foundation, priority 2012, published 2022) come the findings set out here.

The conditions of data set [1]: single dose of zinc, healthy young adult women, blood at 0, 1, 2, 3 and 4 hours. From the text:
Zinc glycinate has not been studied at all in people who have had bariatric surgery. Furthermore, in published studies on any types of people, zinc glycinate has not been compared much to other forms of zinc. Thus, an unpublished comparative study was done in healthy young adult women that compared zinc glycinate to two other forms of zinc. The study utilized an indirect approach of absorption. In this approach, a single dose of zinc was given to young adult women; blood was taken at 0, 1, 2, 3, and 4 hours. Both plasma and red blood cells (erythrocytes) were analyzed for zinc and for each, an area under the curve graph was calculated for zinc content versus time.

A short description of data set [2]: Iron status as ferritin/CRP ratio after bariatric surgery. It counts as in vivo, human. Particulars: added to meal replacement product, same amount of iron for each group. From the text:
Design. Young adult females who were about to have bariatric surgery were recruited. Blood and urine samples were taken before surgery and 6 weeks later. People were divided into two groups. One group drank 2 servings per day of the new product related to this patent (N=12) for 6 weeks. The other group drank 2 servings of a current meal replacement product and also took other supplements including sublingual vitamin B12. The new product had the B12 put right in the meal replacement product. The vitamin is put in the product at a daily dose that is very high relative to normal recommendations, and high relative to what was used for injections or sublingual administration. Also, a coenzyme form of the vitamin was used in the meal replacement product.
Iron status was measured as ferritin/CRP ratios (ferritin reflects iron status but can also be influenced by inflammation; CRP only reflects inflammation).

For `NCC(=O)[O-].NCC(=O)[O-].[Zn+2]` [Zinc glycinate, zinc glycinate], in data set [1], the “erythrocyte (red blood cell) zinc area under the curve” value was “outperformed zinc oxide and gluconate”; the “plasma zinc area under the curve” value is “outperformed zinc oxide and gluconate”. Consider Iron Glycinate Chelate, for which, in data set [2], the “iron status (ferritin/CRP ratios)” value is “improved iron status to about the same degree as a conventional bariatric meal replacement product+iron lozenges”.
